Blank lines part the entries; values can stand above or below the molecule they belong to.
Experiments:
[1] = target: T1, BcGalB (Heyndrickxia coagulans, UniProt G2TH90); test: inhibition of ONP-β-gal hydrolysis; format: biochemical; conditions: 0-100 mM sugar, 5 min preincubation, standard assay 10 mM ONP-β-gal, 100 mM sodium citrate pH 5.0, 60 °C
T1 construct: recombinant in E. coli Rosetta(DE3) pLysS, pET28b, C-terminal His-tag, ~75 kDa monomer, hexamer in solution

[2] = target: T1, BcGalB; test: release of ortho-nitrophenol at […] nm, non-linear regression; format: biochemical; conditions: 100 mM sodium citrate pH 5.0, 60 °C
[3] = target: B. coagulans MA-13 β-galactosidase expressed in E. coli (BcGalB) (Bacillus coagulans MA-13); test: SEC-MALS; S200 16/60 column with Mini DAWN Treos light scattering and QELS; 1 mg protein at 1 mg/ml; 0.5 ml/min; 100 mM sodium phosphate pH 8.0, 1 mM DTT; data not shown

- retained activity at the highest concentration [1]: > 66%
Molecule: OC1OC[C@@H](O)[C@@H](O)[C@@H]1O (stereo partly drawn) [D-arabinose]

- retained activity at the highest concentration ([1]; highest concentration 100 mM, at least 66% retained): > 66%
Molecule: OC1OC[C@@H](O)[C@H](O)[C@H]1O (stereo partly drawn) [D-xylose]

- Km [2]: 723 µM
Molecule: O=[N+]([O-])c1ccccc1O[C@@H]1O[C@H](CO)[C@H](O)[C@H](O)[C@H]1O [ONP-β-gal]

- stoichiometry N [3]: 6
Molecule: B. coagulans MA-13 β-galactosidase expressed in E. coli (BcGalB) (enzyme)
